The values below come from PMC6458995, “MAP4K4 Inhibition Promotes Survival of Human Stem Cell-Derived Cardiomyocytes and Reduces Infarct Size In Vivo” (Cell Stem Cell, 2019).

For one data set, the system named is VEGFR. The experiment in a line: HTRF Transcreener ADP kinase assay. The data set is classed as biochemical, human.
The subject of a further data set is vCor.4U hiPSC-CMs. The experiment in a line: Calcium transients (FLIPR Tetra, EarlyTox Cardiotoxicity dye). The data set is classed as cell-based, human. How it is done:
Calcium transients in hiPSC-CMs were assessed using FLIPR Tetra instrumentation and Early Tox Cardiotoxicity kits (Molecular Devices). vCor.4U cells were subjected to graded concentrations of menadione and the MAP4K4 inhibitors as described for the viability assays. Compound concentrations and time course are denoted in the figure and figure legend. Vehicle controls were used throughout. Cells were incubated for 2-3 hr at 37°C in 5% CO2, using 3 μL well^-1 of EarlyTox Cardiotoxicity Kit concentrate as the fluorescent calcium indicator dye. Plates were then removed from the incubator and allowed to reach room temperature. Intracellular calcium oscillations were monitored using a FLIPR Tetra system with excitation LED bank 470-495 nm and emission filter set 515-575 nm (Molecular Devices). Fluorescence intensity signals were acquired for 600 reads at 1.2 ms intervals. Beat frequency, median peak height, median peak width and total peak area were calculated and compared with the baseline control and with menadione alone. Protection of calcium cycling by DMX-4804 was confirmed in 3 independent experiments with overlapping conditions, and results are shown for a full dose-response study, analyzing 4 wells for each point.

A further data set concerns vCor.4U cells as hEHT. The experiment in a line: 3D human engineered heart tissue (hEHT) challenged with menadione. The data set is classed as cell-based. Here is the method:
Fibrin-based hEHTs were generated between flexible silicone posts as described ([Breckwoldt et al., 2017], [Hansen et al., 2010]), with minor modifications. 1.8 mL well^-1 of 2% agarose in PBS was pipetted into 24-well plates, Teflon spacers (EHT Technologies) were placed inside each well as a casting mold, and the agarose was left to set for 15 min. The spacers were removed from each well, and a pair of polydimethylsiloxane posts was inserted from above (EHT Technologies: Young’s modulus […], length 10 mm, radius, 0.5 mm). VCor.4U cells (4 × 10^6) were resuspended in 400 μL of master mix (340 μL DMEM (Biochrom), 10% heat-inactivated fetal calf serum (GIBCO), 2 mM glutamine (Life Technnologies), 1% penicillin/streptomycin (GIBCO); 60 μL 2x DMEM (GIBCO), 20% horse serum (GIBCO), 2% penicillin/streptomycin). Bovine fibrinogen (Sigma) was added (10 μL: 200 mg mL^-1, 95 μg mL^-1 aprotinin (Sigma), 0.9% NaCl), and 100 μL aliquots were transferred to PCR tubes containing 3 μL of 100 U ml^-1 thrombin (Biopur) in 60% PBS. Cell suspensions then were immediately transferred to the agarose casting molds. After 90 min to allow solidification, 300 μL well^-1 of EHT medium was added (DMEM, 10% horse serum, 0.1% human insulin (Sigma), 0.1% aprotinin), to hydrate the gels for a further 50 min. The hEHTs were then transferred to fresh 24-well plates with 1.5 mL well^-1 of EHT medium, which was replaced every Monday, Wednesday, and Friday for 12 d. Auxotonic force measurements were performed daily by optical tracking ([Hansen et al., 2010]) and calculated on the basis of post deflection distance (δ), post length (L), post radius (R), and the elastic modulus (E), using the formula F = 3πER^4δ4L^-3 ([Schaaf et al., 2011]) and the indicated post parameters. Beating rate and force generation increased between d 5 and 10 and were stable for at least 7 d thereafter. On day 12, the hEHTs were challenged for 24 hr with menadione, in the absence or presence of DMX-5804. Medium, including DMX-5804, was replenished daily. […]

Another data set concerns the target T1, hCaV1.2 (Homo sapiens, UniProt Q13936).
T1 construct: HEK293 cells stably expressing full length hCaV1.2; host or cells: HEK293
The experiment in a line: Ion channel safety screening (Patchliner whole-cell patch clamp). The data set is classed as cell-based. Here is the method:
(§1) Electrophysiological recordings (Apconix) were performed using a Chinese Hamster Ovary cell line stably expressing full length hERG or hNaV1.5, or HEK293 cells stably expressing full length hCaV1.2. Single cell currents were measured in whole-cell configuration at 21-23°C using a Patchliner (Nanion Technologies). The internal solution for hERG contained (mM): 120 KF, 20 KCl, 10EGTA, 10 HEPES (pH 7.3). The internal solution for hNaV1.5 and CaV1.2 contained (mM): 140 CsF, 1 EGTA, 10 NaCl, 10 HEPES (pH 7.3). […] Late Na^+ currents were activated with 50 μM veratridine. Cells were clamped at a holding potential of −80 mV before a depolarising step appropriate for each channel. Currents measured from the step were referenced to the holding current. Compounds were then incubated for 2-3 min prior to a second measurement using an identical pulse train.

The target of another data set is T2, hERG (Homo sapiens, UniProt Q12809).
T2 construct: stably expressing full length hERG; host or cells: Chinese Hamster Ovary cell line
T2 sequence (Q12809 whole entry): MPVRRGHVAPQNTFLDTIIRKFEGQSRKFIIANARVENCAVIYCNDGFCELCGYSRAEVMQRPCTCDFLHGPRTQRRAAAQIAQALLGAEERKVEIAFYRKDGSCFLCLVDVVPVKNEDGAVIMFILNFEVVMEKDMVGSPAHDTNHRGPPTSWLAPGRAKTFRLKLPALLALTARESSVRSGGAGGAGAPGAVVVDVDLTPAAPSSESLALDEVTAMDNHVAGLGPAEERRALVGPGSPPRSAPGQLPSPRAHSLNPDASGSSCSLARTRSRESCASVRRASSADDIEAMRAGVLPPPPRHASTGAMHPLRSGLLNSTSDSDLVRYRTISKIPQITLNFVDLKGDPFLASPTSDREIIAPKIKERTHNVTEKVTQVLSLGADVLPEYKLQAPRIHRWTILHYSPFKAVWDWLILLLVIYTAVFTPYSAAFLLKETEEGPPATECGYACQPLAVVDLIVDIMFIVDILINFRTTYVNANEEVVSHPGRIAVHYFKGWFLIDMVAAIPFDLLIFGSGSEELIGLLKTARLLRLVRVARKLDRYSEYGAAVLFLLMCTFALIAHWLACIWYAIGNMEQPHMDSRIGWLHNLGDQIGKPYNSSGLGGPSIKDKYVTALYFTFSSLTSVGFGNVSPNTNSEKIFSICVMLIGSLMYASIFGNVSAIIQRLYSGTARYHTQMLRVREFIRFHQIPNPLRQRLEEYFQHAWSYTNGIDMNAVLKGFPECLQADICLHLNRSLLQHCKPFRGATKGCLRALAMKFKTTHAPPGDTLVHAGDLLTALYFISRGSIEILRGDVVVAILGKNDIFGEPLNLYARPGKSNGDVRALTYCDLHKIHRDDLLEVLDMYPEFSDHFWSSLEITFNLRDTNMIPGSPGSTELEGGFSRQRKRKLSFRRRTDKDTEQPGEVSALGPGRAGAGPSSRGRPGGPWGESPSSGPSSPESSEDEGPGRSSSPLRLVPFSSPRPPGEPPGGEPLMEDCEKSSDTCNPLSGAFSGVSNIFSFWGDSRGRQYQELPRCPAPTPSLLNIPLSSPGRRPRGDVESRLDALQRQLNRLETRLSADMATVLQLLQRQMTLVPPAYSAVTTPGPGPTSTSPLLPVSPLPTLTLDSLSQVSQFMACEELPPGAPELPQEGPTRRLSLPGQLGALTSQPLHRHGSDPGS
The data set is described as above. The data set is classed as cell-based. Here is the method:
as §1

A further data set addresses T3, hNaV1.5 (Homo sapiens, UniProt Q14524).
T3 construct: stably expressing full length hERG or hNaV1.5; host or cells: Chinese Hamster Ovary cell line
Described as above. Type of data set: cell-based. Here is the method: as §1

Data set [1] deals with S. typhimurium TA98 and TA100. The experiment in a line: Ames genotoxicity reverse mutation assay. Here is the method: Approximately 10^7 bacteria were exposed in triplicate to the test agent (six concentrations, 7.8-250 μg ml^-1), a vehicle control (vehicle) and a positive control for 90 min in low-histidine medium (sufficient for about 2 doublings.) The strains used were S. typhimurium TA98 (hisD3052, rfa, uvrB / pKM101; detects frameshift mutations) and TA100: hisG45, rfa, uvrB / pKM101; detects base-pair substitutions). The cultures were then diluted into indicator medium lacking histidine, dispensed into 384-well plates, and incubated for 48 hr at 37°C. The test was performed in the absence and presence of S9 metabolic activation, to identify pro-mutagens as well as directly acting mutagens. Only cells that underwent reversion grow, resulting in a color change. A two-fold increase over the vehicle control in the number of colonies indicates a positive response.

In another data set the target is cardiac MAP4K4 (Mus musculus, UniProt P97820). The experiment in a line: Target engagement in vivo (desthiobiotin-ATP probe on cardiac lysates after oral dosing). The note with it: dose-response and time course.

A value given as a limit tells only on which side of the number the result lay.

T1 sequence (Q13936 whole entry): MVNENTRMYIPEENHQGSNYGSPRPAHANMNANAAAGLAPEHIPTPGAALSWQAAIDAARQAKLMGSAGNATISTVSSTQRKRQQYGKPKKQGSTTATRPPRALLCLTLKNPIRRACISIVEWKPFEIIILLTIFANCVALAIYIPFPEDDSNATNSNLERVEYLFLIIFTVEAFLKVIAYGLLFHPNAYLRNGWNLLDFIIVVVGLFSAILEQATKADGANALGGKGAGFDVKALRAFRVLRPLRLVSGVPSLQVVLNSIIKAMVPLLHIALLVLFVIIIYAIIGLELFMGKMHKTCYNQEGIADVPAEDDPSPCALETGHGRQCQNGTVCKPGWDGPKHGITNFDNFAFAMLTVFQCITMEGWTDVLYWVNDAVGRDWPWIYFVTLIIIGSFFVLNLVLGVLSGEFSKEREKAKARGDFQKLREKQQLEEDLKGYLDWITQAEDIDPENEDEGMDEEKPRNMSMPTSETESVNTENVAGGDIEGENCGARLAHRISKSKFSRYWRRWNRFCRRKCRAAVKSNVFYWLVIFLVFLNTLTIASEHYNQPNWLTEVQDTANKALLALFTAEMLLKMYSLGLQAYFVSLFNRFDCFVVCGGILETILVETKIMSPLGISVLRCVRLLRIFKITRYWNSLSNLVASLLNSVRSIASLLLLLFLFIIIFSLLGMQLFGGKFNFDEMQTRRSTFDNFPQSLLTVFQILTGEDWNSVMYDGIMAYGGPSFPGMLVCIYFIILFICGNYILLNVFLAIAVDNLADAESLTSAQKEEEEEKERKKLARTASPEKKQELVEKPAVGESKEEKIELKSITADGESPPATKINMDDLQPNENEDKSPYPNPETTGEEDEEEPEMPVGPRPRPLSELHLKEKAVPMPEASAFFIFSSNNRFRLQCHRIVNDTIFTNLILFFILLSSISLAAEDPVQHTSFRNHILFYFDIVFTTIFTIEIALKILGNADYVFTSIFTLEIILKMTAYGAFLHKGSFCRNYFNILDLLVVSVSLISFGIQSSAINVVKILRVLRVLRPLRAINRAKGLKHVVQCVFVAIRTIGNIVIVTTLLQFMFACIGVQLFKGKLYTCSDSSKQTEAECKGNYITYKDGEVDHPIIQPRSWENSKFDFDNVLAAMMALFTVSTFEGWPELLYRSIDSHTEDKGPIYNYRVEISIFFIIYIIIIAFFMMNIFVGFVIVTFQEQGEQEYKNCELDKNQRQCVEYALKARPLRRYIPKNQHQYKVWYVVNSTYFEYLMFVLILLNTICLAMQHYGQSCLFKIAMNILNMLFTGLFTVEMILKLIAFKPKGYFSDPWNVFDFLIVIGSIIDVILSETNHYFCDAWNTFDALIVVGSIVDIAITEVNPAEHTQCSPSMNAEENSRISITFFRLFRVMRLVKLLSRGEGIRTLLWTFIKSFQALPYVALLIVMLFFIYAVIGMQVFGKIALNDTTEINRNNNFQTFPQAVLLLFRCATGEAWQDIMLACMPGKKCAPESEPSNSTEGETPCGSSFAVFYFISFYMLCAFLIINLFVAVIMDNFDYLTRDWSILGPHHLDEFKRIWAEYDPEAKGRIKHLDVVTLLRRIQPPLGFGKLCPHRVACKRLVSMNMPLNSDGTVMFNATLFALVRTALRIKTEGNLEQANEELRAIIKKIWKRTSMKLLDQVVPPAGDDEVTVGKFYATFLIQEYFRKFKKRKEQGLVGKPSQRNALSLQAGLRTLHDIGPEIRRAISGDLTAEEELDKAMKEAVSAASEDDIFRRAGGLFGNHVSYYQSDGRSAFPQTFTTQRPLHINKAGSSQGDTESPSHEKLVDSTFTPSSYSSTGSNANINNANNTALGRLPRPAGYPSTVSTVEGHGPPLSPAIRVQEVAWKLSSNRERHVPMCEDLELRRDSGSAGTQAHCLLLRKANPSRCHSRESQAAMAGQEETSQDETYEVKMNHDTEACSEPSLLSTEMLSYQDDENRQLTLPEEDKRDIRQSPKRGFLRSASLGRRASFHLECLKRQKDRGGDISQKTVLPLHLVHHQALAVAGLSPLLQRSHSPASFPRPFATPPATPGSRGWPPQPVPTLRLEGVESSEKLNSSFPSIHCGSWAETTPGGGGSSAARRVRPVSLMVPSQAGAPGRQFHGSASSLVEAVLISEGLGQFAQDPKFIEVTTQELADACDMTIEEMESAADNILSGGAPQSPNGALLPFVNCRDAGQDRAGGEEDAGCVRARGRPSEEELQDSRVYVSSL
T1 sequence (Q08289 whole entry partner): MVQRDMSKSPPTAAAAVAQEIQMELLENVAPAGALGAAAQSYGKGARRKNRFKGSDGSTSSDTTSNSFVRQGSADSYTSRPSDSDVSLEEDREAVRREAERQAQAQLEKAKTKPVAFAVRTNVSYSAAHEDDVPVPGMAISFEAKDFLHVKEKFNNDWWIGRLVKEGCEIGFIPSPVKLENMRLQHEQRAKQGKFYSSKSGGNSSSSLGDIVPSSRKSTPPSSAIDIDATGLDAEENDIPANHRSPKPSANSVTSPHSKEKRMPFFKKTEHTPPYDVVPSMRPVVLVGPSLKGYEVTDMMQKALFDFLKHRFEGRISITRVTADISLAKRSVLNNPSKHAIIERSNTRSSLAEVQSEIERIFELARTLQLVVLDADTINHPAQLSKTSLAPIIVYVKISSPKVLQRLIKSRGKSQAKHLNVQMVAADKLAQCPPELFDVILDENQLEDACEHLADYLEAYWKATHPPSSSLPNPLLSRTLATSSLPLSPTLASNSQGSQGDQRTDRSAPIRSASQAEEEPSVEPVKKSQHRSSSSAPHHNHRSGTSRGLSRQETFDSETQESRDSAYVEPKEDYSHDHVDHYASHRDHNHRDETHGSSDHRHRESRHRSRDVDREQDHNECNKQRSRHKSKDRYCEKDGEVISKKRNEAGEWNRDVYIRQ
T1 sequence (P54289 25-956 partner limits assumed): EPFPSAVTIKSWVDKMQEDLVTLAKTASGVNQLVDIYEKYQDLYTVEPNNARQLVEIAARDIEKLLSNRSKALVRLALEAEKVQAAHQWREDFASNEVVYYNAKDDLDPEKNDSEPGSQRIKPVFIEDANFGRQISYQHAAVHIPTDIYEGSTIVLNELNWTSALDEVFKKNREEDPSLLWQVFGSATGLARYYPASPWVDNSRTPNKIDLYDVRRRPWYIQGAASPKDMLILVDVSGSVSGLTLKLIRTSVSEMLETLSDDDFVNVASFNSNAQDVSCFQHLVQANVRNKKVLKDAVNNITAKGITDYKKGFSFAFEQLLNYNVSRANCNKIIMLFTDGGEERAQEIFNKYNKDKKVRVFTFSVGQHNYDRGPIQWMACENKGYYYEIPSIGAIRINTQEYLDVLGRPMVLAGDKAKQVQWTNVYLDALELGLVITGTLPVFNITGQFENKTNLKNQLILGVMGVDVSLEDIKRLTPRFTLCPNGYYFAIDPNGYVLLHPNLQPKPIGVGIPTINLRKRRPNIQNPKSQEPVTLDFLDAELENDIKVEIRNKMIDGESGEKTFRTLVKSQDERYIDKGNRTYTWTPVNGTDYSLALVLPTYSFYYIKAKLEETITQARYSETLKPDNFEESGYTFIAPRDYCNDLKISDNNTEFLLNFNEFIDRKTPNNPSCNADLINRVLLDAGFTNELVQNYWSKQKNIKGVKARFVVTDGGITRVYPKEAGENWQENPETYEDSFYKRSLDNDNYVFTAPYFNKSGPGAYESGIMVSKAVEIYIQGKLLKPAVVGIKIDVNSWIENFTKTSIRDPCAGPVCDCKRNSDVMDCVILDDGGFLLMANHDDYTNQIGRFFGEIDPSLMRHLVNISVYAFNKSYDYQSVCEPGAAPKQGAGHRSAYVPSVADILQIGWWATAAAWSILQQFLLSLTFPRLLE
T1 sequence (P54289 957-1103 partner limits assumed): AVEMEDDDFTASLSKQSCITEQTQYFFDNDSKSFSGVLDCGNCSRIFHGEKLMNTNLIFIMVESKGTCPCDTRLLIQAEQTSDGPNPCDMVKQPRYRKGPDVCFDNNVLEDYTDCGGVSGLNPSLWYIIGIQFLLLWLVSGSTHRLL

With `COCCOc1ccc(-c2cn(-c3ccccc3)c3nc[nH]c(=O)c23)cc1` [DMX-5804, 5-[4-(2-methoxy-ethoxy)-phenyl]-7-phenyl-3,7-dihydro-pyrrolo[2,3-d]pyrimidin-4-one], the “Fold Selectivity” value with VEGFR (VEGFR versus MAP4K4) was 675. The compound further had a pIC50 on VEGFR (VEGFR, HTRF Transcreener ADP assay) of 5.72. In the data set on VEGFR (ratio of fold selectivity, VEGFR), the “DMX-5804 vs F1386-0303” value came to 12.27. Further, the EC50 in the data set on vCor.4U hiPSC-CMs (Homo sapiens, calcium cycling, menadione, vCor.4U, read-out: concentration preserving ∼50% of peak area and peak height) was 0.5 to 2 µM. For the same compound, in the data set on vCor.4U hiPSC-CMs (menadione present throughout), the “duration for which protection of calcium cycling was maintained” value was “up to 96 h”. Further, the “spontaneous calcium cycling after hypoxia-reoxygenation” value with vCor.4U hiPSC-CMs (vCor.4U, 8 hr after hypoxia-reoxygenation, 10 μM) is recorded as “protection was conferred”. In addition, the “effect on baseline calcium cycling” value with vCor.4U hiPSC-CMs (vCor.4U, no menadione) is reported as “no effect”. For the same compound, in the data set on vCor.4U cells as hEHT (10 μM, first 24 h), the “cell death from menadione in hEHT” value was “suppressed”. Moreover, in the data set on vCor.4U cells as hEHT (2D culture or hEHT), the “adverse effect on cardiomyocyte viability, rhythmicity, calcium handling, mitochondrial function, force generation” value was “no adverse effect”. The “rescue of contractile function in hEHT” value in the data set on vCor.4U cells as hEHT (3 or 10 μM, 60 min and 24 h, not later) is reported as “virtually complete”. Further, the off-target effect result at hCaV1.2 (cloned human hCaV1.2), at hERG (cloned human hERG) and on hNaV1.5 (cloned human hNaV1.5) was “no off-target effect” throughout. The IC50 against hCaV1.2 (hCaV1.2, HEK cells, 4-parameter logistic fit) is above 30 µM; against hERG (hERG, CHO cells, 4-parameter logistic fit) it was above 30 µM; against hNaV1.5 (hNaV1.5, CHO cells, 4-parameter logistic fit), above 30 µM. Moreover, the “Ames test of mutagenic potential” value in data set [1] was “no off-target effect”. The “inhibition of ATP binding to cardiac MAP4K4 in vivo” value at cardiac MAP4K4 was “substantiated”.
